# Test results reported in patent US20130273567A1, “Screening Method for Candidate Agonist Compounds for Adiponectin Receptor I” (priority 2010, published 2013).
# How the values were obtained:
# AMPK = AMPK phosphorylation in C2C12 myocytes (immunoblotting); type: cell-based, mouse; details: for effect on adiponectin-induced increase in AMPK phosphorylation: C2C12 myocytes preincubated with 5 mM EGTA 20 min, 50 μM BAPTA-AM 30 min or 10 μM U73122 30 min, then adiponectin 30 μg/ml 5 min
# Method: (§1) The mouse C2C12 myoblasts were grown in 90% Dulbecco's modified high glucose Eagle's medium containing 10% (v/v) fetal bovine serum. When the cells reached 80% confluent, the myoblasts were induced to differentiate into myocytes by replacing the medium with a low serum differentiation medium (98% Dulbecco's modified high glucose Eagle's medium, 2.5% (v/v) horse serum). The medium was changed daily. The C2C12 cells were transfected by using Pofectamine 2000 (Invitrogen) and following the manufacturer's instructions.
# mAdipoR1 = biological target: T1, mAdipoR1 (Mus musculus, UniProt Q91VH1); test: Xenopus oocytes injected with AdipoR1 cRNA, two-electrode voltage clamp recording; type: cell-based; details: Xenopus oocytes expressing AdipoR1, 5 mM EGTA
# T1 construct: expressed in transfected cells; host or cells: Xenopus oocytes (stage V to VII) injected with cRNA
# T1 sequence (Q91VH1 1-375): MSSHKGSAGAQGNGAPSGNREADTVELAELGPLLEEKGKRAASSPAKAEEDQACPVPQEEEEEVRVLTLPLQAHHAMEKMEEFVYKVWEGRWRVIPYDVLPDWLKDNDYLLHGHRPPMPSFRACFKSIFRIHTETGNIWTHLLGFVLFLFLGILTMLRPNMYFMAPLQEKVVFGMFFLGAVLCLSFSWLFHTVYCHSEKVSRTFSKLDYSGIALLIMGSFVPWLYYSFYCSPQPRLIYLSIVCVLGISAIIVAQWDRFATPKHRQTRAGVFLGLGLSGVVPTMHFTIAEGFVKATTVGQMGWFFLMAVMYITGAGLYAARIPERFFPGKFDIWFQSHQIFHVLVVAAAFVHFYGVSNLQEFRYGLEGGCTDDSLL
# Method: Stage V to VII oocytes were treated with 2 mg/ml of collagenase S-1 (Nitta gelatin) in calcium ion-free saline solution (82.5 mM NaCl, 2 mM KCl, 1 mM MgCl2, and 5 mM HEPES, pH 7.5) for 1 to 2 hr at room temperature. The resulting oocytes were then microinjected with 50 ng of cRNA for mAdipoR1. The cRNA was synthesized from linearized modified pSPUTK. The injected oocytes were incubated for 3 days at 18° C. in a bath solution (88 mM NaCl, 1 mM KCl, 0.3 mM Ca(NO3)2, 0.4 mM CaCl2, 0.8 mM MgSO4, 2.4 mM NaHCO3, 15 mM HEPES, pH 7.6) supplemented with 10 μg/ml of penicillin and streptomycin.
# Whole cell currents were recorded with a two-electrode voltage clamp technique. Intracellular glass electrodes were filled with 3M KCl. Signals were amplified with an OC-725C amplifier (Warner Instruments), low-pass filtered at 50 Hz, and digitized at 1 kHz. A control bath solution contained 115 mM NaCl, 2.5 mM KCl, 1.8 mM CaCl2, and 10 mM HEPES. It was titrated to pH 7.2 with NaOH. A calcium ion free solution containing 1.8 mM BaCl2 instead of CaCl2 was used. The inward current was monitored at a holding potential of −80 mV. Calcium ion activated Cl^− current was monitored by applying 500-mscc depolarizing pulses of +100 mV and +50 mV from the holding potential of −80 mV. Adiponectin was supplied to the superfusing bath solution via a silicon tube connected to computer-driven solenoid valves. Data acquisition and analysis were carried out using Digidata 1322A and pCLAMP software.
# PGC-1α = PGC-1α (Ppargc1a mRNA) expression in C2C12 myocytes; type: cell-based, mouse; details: C2C12 myocytes preincubated with AraA 0.5 mM 1 hr, STO-609 1 μg/ml 6 hr or EGTA 5 mM 20 min, then adiponectin 10 μg/ml 1.5 hr
# Method: Real-time PCR was carried out according to the method described in the following documents (Nature Med. 13, 332-339 2007); Nature 423, 762-769 (2003); J. Biol. Chem. 281, 8748-8755 (2006)). Total RNA was prepared from cells or tissues by using Trizol (Invitrogen) according to the manufacturer's instructions. Quantification of mRNA was conducted using a real-time PCR method (Nature 423, 762-769 (2003)) with slight modifications. The procedures used for immunoblotting are described in the following documents (Nature Med. 7, 941-946 (2001); J. Biol. Chem. 281, 26602-26614 (2006); J. Biol. Chem. 281, 8748-8755 (2006)). The livers or muscles were freeze-clamped in liquid nitrogen in situ (Nature Med. 7, 941-946 (2001); J. Biol. Chem. 281, 26602-26614 (2006); J. Biol. Chem. 281, 8748-8755 (2006)). The mouse C2C12 myoblasts were grown in 90% Dulbecco's modified high glucose Eagle's medium containing 10% (v/v) fetal bovine serum. When the cells reached 80% confluent, the myoblasts were induced to differentiate into myocytes by replacing the medium with a low serum differentiation medium (98% Dulbecco's modified high glucose Eagle's medium, 2.5% (v/v) horse serum). The medium was changed daily. The C2C12 cells were transfected by using Pofectamine 2000 (Invitrogen) and following the manufacturer's instructions.
# CaMKI, HDAC5 = test: Phosphorylation of CaMKI and HDAC5 in C2C12 myocytes (immunoblotting); type: cell-based, mouse; details: 5 mM EGTA
# Method: as §1
# AdipoR1 = biological target: T2, AdipoR1 (Mus musculus, UniProt Q91VH1); test: Calcium imaging in C2C12 myocytes (fura-2); type: cell-based; parameters: endogenous in cells; host or cells: mouse C2C12 myocytes (differentiated from myoblasts)
# T2 sequence (Q91VH1 1-375): T1 sequence (Q91VH1 1-375)
# Method: C212 myocytes cultured on glass base dishes (IWAKI) were treated with 2.5 μM fura-2/AM for 30 min. Fluorescence was measured with an Aquacosmos Calcium Imaging system (Hamamatsu Photonics). Ligands were delivered through the superfusing Ringer's solution (140 mM NaCl, 5.6 mM KCl, 5 mM HEPES, 2.0 mM sodium pyruvate, 1.25 mM KH2PO4, 2.0 mM CaCl2, 2.0 mM MgCl2, 9.4 mM D-glucose (pH 7.4)). For the calcium chelating experiment, EGTA solution (140 mM NaCl, 5.6 mM KCl, 5 mM HEPES, 2.0 mM sodium pyruvate, 1.25 mM KH2PO4, 2.0 mM MgCl2, 5.0 mM EGTA-2Na, 9.4 mM D-glucose (pH 7.4) was used for the bath solution. Fura-2 fluorescence ratios were calibrated to calcium ion signals.
# C2C12 myocytes = test: Mitochondrial content assay in C2C12 myocytes (mtDNA copy number, MitoTracker Green); type: cell-based, mouse; details: C2C12 myocytes preincubated with AraA 0.5 mM 1 hr or STO-609 1 μg/ml 6 hr, then adiponectin 48 hr
# Method: Mice used were from 8 to 10 week old at the time of the experiment. […] Induction of myogenic differentiation using C2C12 cells was carried out according to the method described in the following document (Nature Med. 8, 1288-1295 (2002)). By day 5, the cells had differentiated into multinucleated contracting myocytes. C2C12 myocytes were used after myogenic differentiation in all experiments.
# as §1
# (§2) Mitochondrial content assays were carried out as described in the following document (Cell Metab. 4, 75-87 (2006)), with slight modifications. Quantification of the mitochondrial content was conducted by using mtDNA and MitoTracker Green probe (Molecular Probes) according to the method as described in the following document (Obes. Res. 13, 574-581 (2005)). MitoTracker Green probe preferentially accumulates in mitochondria regardless of the mitochondrial membrane potential and provides an accurate assessment of mitochondrial mass. Cells were washed with PBS and after addition of 100 nM MitoTracker Green FM (Molecular Probes), incubated at 37° C. for 30 min. Cells were harvested by using trypsin/EDTA and resuspended in PBS. Fluorescence intensity was detected with excitation and emission wavelengths of 490 and 516 nm, respectively, and the values thus measured were corrected for total protein (mg/ml).
# muscle-R1KO mice [1] = test: Treatment of muscle-R1KO mice with AICAR, resveratrol or MnTBAP; type: in vivo; details: for citrate synthase activities in muscle / insulin resistance / mitochondrial content in muscle: AICAR 500, resveratrol 400, MnTBAP 10 mg per kg body weight per day
# Method: Oral glucose tolerance test (OGTT) and insulin tolerance test (ITT) were conducted by the method described in the following documents (Nature Med. 8, 1288-1295 (2002); Nature Med. 7, 941-946 (2001)), with some modifications. The areas of the glucose and insulin curves were calculated, respectively, by multiplying the cumulative mean height of the glucose values (1 mg/ml=1 cm) and insulin values (1 ng/ml=1 cm) by time (60 min=1 cm) (Nature Med. 13, 332-339 (2007); Nature Med. 7, 941-946 (2001)). The insulin resistance index was calculated from the product of the areas of glucose and insulin×10^−2 in the glucose tolerance test. The results were expressed as the percentage of the value of control littermates.
# muscle-R1KO mice [2] = test: Increased calcium influx experiment (Bay-K 8644 gelatin hydrogel) in muscle-R1KO mice; type: in vivo; details: 0.25 μM Bay-K 8644
# Method: as §2
# Citrate synthase activity was determined from the homogeneates by using a spectrophotometer according to the method described in the following documents (Cell Metab. 4, 75-87 (2006); Eur. J. Biochem. 10, 198-206 (1969); Obes Res 13, 574-581 (2005)). The citrate synthase activity was measured at 37° C. in 0.1M Tris-HCl (pH 8.3) assay buffer containing 0.12 mM 5,5′-dithio-bis(2-nitrobenzoic acid) and 0.6 mM oxaloacetate. After recording of absorbance at 412 nm in the first two minutes, the reaction was started with the addition of 3 mM acetyl-CoA and a change in absorbance was measured every 10 sec for 7 min.
# Hydrogels were prepared by crosslinking aqueous gelatin solutions with glutaraldehyde according to the method described in the following document (J. Control Release 64, 133-142 (2000)). For incorporating Bay-K 8644 into the resulting gelatin hydrogels, 20 μl of Bay-K 8644 (0.25 μM) was added dropwise onto 20 mg of freeze-dried hydrogel and left it overnight at 4° C. Under anesthesia, the gelatin hydrogel having Bay-K 8644 incorporated therein was implanted under the skin. Then, the skin was carefully sutured with No. 4-0 nylon monofilament.
compound,measurement,setting,value
"CC(=O)OCOC(=O)CN(CC(=O)OCOC(C)=O)c1ccccc1OCCOc1ccccc1N(CC(=O)OCOC(C)=O)CC(=O)OCOC(C)=O [BAPTA-AM, Bis-(o-aminophenoxy)ethane-N,N,N9,N9-tetra-acetic acid, tetraacetoxymethyl ester]",effect on adiponectin-induced increase in AMPK phosphorylation,AMPK,partially suppressed
O=C(O)CN(CCOCCOCCN(CC(=O)O)CC(=O)O)CC(=O)O [EGTA],effect on adiponectin-induced increase in AMPK phosphorylation,AMPK,partially suppressed
same,effect on phosphorylation of AMPK induced by AICAR,"AMPK; C2C12 myocytes, 5 mM EGTA, AICAR 1 mM 1 hr",had no effect
same,effect on ionomycin-dependent phosphorylation of AMPK,"AMPK; C2C12 myocytes, 5 mM EGTA, ionomycin 1 μM",almost completely abolished
same,effect on adiponectin-induced inward current responses,mAdipoR1,almost completely abolishes
same,effect on calcium-ion activated Cl- current responses to adiponectin,mAdipoR1,almost completely abolished
same,effect on PGC-1α expression induced by adiponectin,PGC-1α,effectively and almost completely abolished
same,effect on increased CaMKI phosphorylation stimulated with adiponectin,"CaMKI, HDAC5",almost completely abolished
same,effect on adiponectin-induced calcium ion response,AdipoR1; 5 mM EGTA (removal of extracellular free calcium ions),almost completely abolished
same,effect on ATP-induced intracellular calcium ion release,AdipoR1; EGTA,had no effect
Nc1ncnc2c1ncn2[C@@H]1O[C@H](CO)[C@@H](O)[C@@H]1O [AraA],effect on PGC-1α expression induced by adiponectin,PGC-1α,only tended to decrease
same,effect on adiponectin-induced increase in mitochondrial biogenesis,C2C12 myocytes,almost completely abolished
Oc1ccc(C=Cc2cc(O)cc(O)c2)cc1 [resveratrol],citrate synthase activities in muscle,"muscle-R1KO mice [1]; muscle-R1KO mice, 2 weeks",increased
same,insulin resistance,"muscle-R1KO mice [1]; muscle-R1KO mice, 2 weeks",significantly ameliorated
same,mitochondrial content in muscle,"muscle-R1KO mice [1]; muscle-R1KO mice, 2 weeks",increased
"NC(=O)c1ncn([C@@H]2O[C@H](CO)[C@@H](O)[C@H]2O)c1N [AICAR, 5-aminoimidazole-4-carboxamide-1-β-D-libocide]",citrate synthase activities in muscle,"muscle-R1KO mice [1]; muscle-R1KO mice, 2 weeks",increased
same,insulin resistance,"muscle-R1KO mice [1]; muscle-R1KO mice, 2 weeks",significantly ameliorated
same,mitochondrial content in muscle,"muscle-R1KO mice [1]; muscle-R1KO mice, 2 weeks",increased
same,rescue of the AdipoR1 loss in muscle,"muscle-R1KO mice [1]; muscle-R1KO mice, AICAR 500 mg per kg body weight per day, 2 weeks",significantly but partially rescued
same,phosphorylation of AMPK in muscle,"muscle-R1KO mice [1]; muscle-R1KO mice, AICAR 500 mg per kg body weight per day, 2 hours",significantly increased
O=C(O)c1ccc(/C2=C3\C=CC(=N3)/C(c3ccc(C(=O)O)cc3)=c3/cc/c4[n]3[Mn]([Cl])[n]3c2ccc3/C(c2ccc(C(=O)O)cc2)=C2/C=CC(=N2)\C=4c2ccc(C(=O)O)cc2)cc1 [MnTBAP],ROS such as H2O2 in skeletal muscle,"muscle-R1KO mice [1]; MnTBAP 10 mg per kg body weight per day, 2 weeks",significantly decreased
same,citrate synthase activities in muscle,"muscle-R1KO mice [1]; muscle-R1KO mice, 2 weeks",failed to significantly increase
same,insulin resistance,"muscle-R1KO mice [1]; muscle-R1KO mice, 2 weeks",tended to ameliorate
same,mitochondrial content in muscle,"muscle-R1KO mice [1]; muscle-R1KO mice, 2 weeks",failed to significantly increase
COC(=O)C1=C(C)NC(C)=C([N+](=O)[O-])C1c1ccccc1C(F)(F)F (stereo not shown) [Bay-K 8644],CaMKKβ activity (phosphorylation of CaMKI) in skeletal muscle,muscle-R1KO mice [2],increase
same,citrate synthase activities in muscle,muscle-R1KO mice [2],significantly enhanced
same,insulin-stimulated phosphorylation of Akt in muscle,muscle-R1KO mice [2],significantly enhanced
same,mitochondrial content in muscle,muscle-R1KO mice [2],significantly enhanced
O=C(O)c1ccc2c3c1cccc3c(=O)n1c3ccccc3nc21 [STO-609],effect on PGC-1α expression induced by adiponectin,PGC-1α,effectively and almost completely abolished
same,effect on adiponectin-induced increase in mitochondrial biogenesis,C2C12 myocytes,almost completely abolished
COc1ccc2c(c1)CC[C@@H]1[C@@H]2CC[C@]2(C)[C@@H](NCCCCCCN3C(=O)C=CC3=O)CC[C@@H]12 [U73122],effect on adiponectin-induced increase in AMPK phosphorylation,AMPK,had little effect
